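Cells were grown in 96-well plates and exposed to each compound for 48 hours at five concentrations; endpoints were interpolated linearly between bracketing concentrations, or set to the highest concentration if not reached. At the GI50, growth is halved.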 Activity calls are given as the source filed them. Rule as the data show it: active = GI50 up to about 1.1 µM and inactive = higher.
Key:
Experiment in all cases: NCI anticancer screen, dose series, 48 h
786-0 = system: 786-0
A498 = system: A498
A549 = system: A549
ACHN = system: ACHN
CAKI-1 = system: CAKI-1
CCRF-CEM = system: CCRF-CEM
COLO 205 = system: COLO 205
DU-145 = system: DU-145
EKVX = system: EKVX
HCC 2998 = system: HCC 2998
HCT-116 = system: HCT-116
HCT-15 = system: HCT-15
Hs-578T = system: Hs-578T
IGROV-1 = system: IGROV-1
K562 = system: K562
KM12 = system: KM12
LOX IMVI = system: LOX IMVI
M14 = system: M14
MDA-MB-435 = system: MDA-MB-435
MDA-N = system: MDA-N
MOLT-4 = system: MOLT-4
NCI-H23 = system: NCI-H23
NCI-H460 = system: NCI-H460
OVCAR-4 = system: OVCAR-4
PC-3 = system: PC-3
RPMI-8226 = system: RPMI-8226
RXF 393 = system: RXF 393
SF-268 = system: SF-268
SF-295 = system: SF-295
SK-MEL-28 = system: SK-MEL-28
SK-MEL-5 = system: SK-MEL-5
SN12C = system: SN12C
SNB-19 = system: SNB-19
SW-620 = system: SW-620
U-251 = system: U-251
UACC-257 = system: UACC-257
UACC-62 = system: UACC-62
UO-31 = system: UO-31
HL-60 = system: HL-60
HOP-62 = system: HOP-62
HT-29 = system: HT-29
MCF7 = system: MCF7
MDA-MB-231 = system: MDA-MB-231
Malme-3M = system: Malme-3M
NCI-H226 = system: NCI-H226
NCI-H522 = system: NCI-H522
NCI/ADR-RES = system: NCI/ADR-RES
OVCAR-5 = system: OVCAR-5
OVCAR-8 = system: OVCAR-8
SF-539 = system: SF-539
SK-MEL-2 = system: SK-MEL-2
SNB-75 = system: SNB-75
SR = system: SR
T47D = system: T47D
TK-10 = system: TK-10
HOP-92 = system: HOP-92
OVCAR-3 = system: OVCAR-3

COc1ccc2c(ccc3c(C(=O)NCCCN(C)CCCNC(=O)c4cn(C)c5c4ccc4cc(OC)ccc45)cn(C)c32)c1
GI50 (786-0): 1.49 µM (inactive)
GI50 (A498): 28.6 µM (inactive)
GI50 (A549): 1.43 µM (inactive)
GI50 (ACHN): 1.66 µM (inactive)
GI50 (CAKI-1): 1.64 µM (inactive)
GI50 (CCRF-CEM): 1.07 µM (active)
GI50 (COLO 205): 2.11 µM (inactive)
GI50 (DU-145): 1.67 µM (inactive)
GI50 (EKVX): 1.57 µM (inactive)
GI50 (HCC 2998): 1.61 µM (inactive)
GI50 (HCT-116): 1.73 µM (inactive)
GI50 (HCT-15): 1.32 µM
GI50 (Hs-578T): 2.33 µM (inactive)
GI50 (IGROV-1): 1.53 µM (inactive)
GI50 (K562): 0.403 µM (active)
GI50 (KM12): 1.56 µM (inactive)
GI50 (LOX IMVI): 2.26 µM (inactive)
GI50 (M14): 1.59 µM (inactive)
GI50 (MDA-MB-435): 1.89 µM (inactive)
GI50 (MDA-N): 1.53 µM (inactive)
GI50 (MOLT-4): 2.23 µM (inactive)
GI50 (NCI-H23): 1.58 µM (inactive)
GI50 (NCI-H460): 1.47 µM (inactive)
GI50 (OVCAR-4): 1.71 µM (inactive)
GI50 (PC-3): 1.55 µM (inactive)
GI50 (RPMI-8226): 2.35 µM (inactive)
GI50 (RXF 393): 2.12 µM (inactive)
GI50 (SF-268): 1.78 µM (inactive)
GI50 (SF-295): 2.15 µM (inactive)
GI50 (SK-MEL-28): 1.77 µM (inactive)
GI50 (SK-MEL-5): 1.9 µM (inactive)
GI50 (SN12C): 1.57 µM (inactive)
GI50 (SNB-19): 1.79 µM (inactive)
GI50 (SW-620): 1.83 µM (inactive)
GI50 (U-251): 1.92 µM (inactive)
GI50 (UACC-257): 1.57 µM (inactive)
GI50 (UACC-62): 1.77 µM (inactive)
GI50 (UO-31): 1.66 µM (inactive)

CC/C(=C\c1ccc(Cl)c(Cl)c1)[N+](=O)[O-]
GI50 (786-0): 1.59 µM (inactive)
GI50 (A498): 8.18 µM (inactive)
GI50 (A549): 2.1 µM (inactive)
GI50 (ACHN): 1.75 µM (inactive)
GI50 (COLO 205): 1.72 µM (inactive)
GI50 (DU-145): 1.86 µM (inactive)
GI50 (EKVX): 2.76 µM (inactive)
GI50 (HCC 2998): 1.7 µM (inactive)
GI50 (HCT-116): 3.66 µM (inactive)
GI50 (HCT-15): 1.66 µM
GI50 (HL-60): 1.18 µM (inactive)
GI50 (HOP-62): 2.96 µM (inactive)
GI50 (HT-29): 3.4 µM (inactive)
GI50 (Hs-578T): 3.48 µM (inactive)
GI50 (IGROV-1): 1.64 µM (inactive)
GI50 (K562): 2.13 µM (inactive)
GI50 (KM12): 2.96 µM (inactive)
GI50 (LOX IMVI): 0.405 µM (active)
GI50 (M14): 1.45 µM (inactive)
GI50 (MCF7): 1.15 µM (inactive)
GI50 (MDA-MB-231): 2.53 µM (inactive)
GI50 (MDA-MB-435): 1.71 µM (inactive)
GI50 (MOLT-4): 0.236 µM (active)
GI50 (Malme-3M): 1.92 µM (inactive)
GI50 (NCI-H226): 2.23 µM (inactive)
GI50 (NCI-H23): 2.34 µM (inactive)
GI50 (NCI-H460): 2.42 µM (inactive)
GI50 (NCI-H522): 1.72 µM (inactive)
GI50 (NCI/ADR-RES): 2.27 µM (inactive)
GI50 (OVCAR-4): 3 µM (inactive)
GI50 (OVCAR-5): 2.06 µM (inactive)
GI50 (OVCAR-8): 1.68 µM (inactive)
GI50 (PC-3): 2.23 µM (inactive)
GI50 (RPMI-8226): 1.92 µM (inactive)
GI50 (SF-268): 2.03 µM (inactive)
GI50 (SF-295): 2.04 µM (inactive)
GI50 (SF-539): 1.89 µM (inactive)
GI50 (SK-MEL-28): 2.06 µM (inactive)
GI50 (SK-MEL-2): 2.28 µM (inactive)
GI50 (SK-MEL-5): 1.97 µM (inactive)
GI50 (SN12C): 2.09 µM (inactive)
GI50 (SNB-19): 2.36 µM (inactive)
GI50 (SNB-75): 3.84 µM (inactive)
GI50 (SR): 0.948 µM (active)
GI50 (SW-620): 3.03 µM (inactive)
GI50 (T47D): 2.93 µM (inactive)
GI50 (TK-10): 1.94 µM (inactive)
GI50 (U-251): 1.86 µM (inactive)
GI50 (UACC-257): 1.94 µM (inactive)
GI50 (UACC-62): 1.93 µM (inactive)
GI50 (UO-31): 1.88 µM (inactive)

O=c1c(C(c2ccco2)c2c(O)oc3ccccc3c2=O)c(O)oc2ccccc12
GI50 (786-0): 25.1 µM (inactive)
GI50 (A498): > 100 µM (inactive)
GI50 (ACHN): 27.1 µM (inactive)
GI50 (CAKI-1): 21.8 µM (inactive)
GI50 (CCRF-CEM): 26.8 µM (inactive)
GI50 (COLO 205): 22.3 µM (inactive)
GI50 (DU-145): > 100 µM (inactive)
GI50 (EKVX): 47 µM (inactive)
GI50 (HCC 2998): 26.5 µM (inactive)
GI50 (HCT-116): 78 µM (inactive)
GI50 (HCT-15): 19.1 µM
GI50 (HL-60): 67.5 µM (inactive)
GI50 (HOP-62): > 100 µM (inactive)
GI50 (HOP-92): 25.5 µM (inactive)
GI50 (HT-29): 47.6 µM (inactive)
GI50 (Hs-578T): 51.1 µM (inactive)
GI50 (IGROV-1): 17.8 µM (inactive)
GI50 (K562): 38.6 µM (inactive)
GI50 (KM12): > 100 µM (inactive)
GI50 (LOX IMVI): 28.2 µM (inactive)
GI50 (MDA-MB-231): 20 µM (inactive)
GI50 (MDA-MB-435): 31.6 µM (inactive)
GI50 (MDA-N): 22.6 µM (inactive)
GI50 (MOLT-4): 25.6 µM (inactive)
GI50 (Malme-3M): 20.5 µM (inactive)
GI50 (NCI-H226): 64.9 µM (inactive)
GI50 (NCI-H23): > 100 µM (inactive)
GI50 (NCI-H460): > 100 µM (inactive)
GI50 (NCI-H522): 19.5 µM (inactive)
GI50 (NCI/ADR-RES): 30.5 µM (inactive)
GI50 (OVCAR-3): 41.6 µM (inactive)
GI50 (OVCAR-4): 70.8 µM (inactive)
GI50 (OVCAR-8): 27.4 µM (inactive)
GI50 (PC-3): > 100 µM (inactive)
GI50 (RPMI-8226): 26.1 µM (inactive)
GI50 (SF-268): 31.9 µM (inactive)
GI50 (SK-MEL-28): 21.2 µM (inactive)
GI50 (SK-MEL-2): 51.6 µM (inactive)
GI50 (SK-MEL-5): 40.3 µM (inactive)
GI50 (SN12C): 25.1 µM (inactive)
GI50 (SNB-19): 44.6 µM (inactive)
GI50 (SNB-75): 28.1 µM (inactive)
GI50 (SW-620): 21.4 µM (inactive)
GI50 (T47D): 43.3 µM (inactive)
GI50 (TK-10): 26.7 µM (inactive)
GI50 (U-251): 27.2 µM (inactive)
GI50 (UACC-257): 23.4 µM (inactive)
GI50 (UACC-62): 25.9 µM (inactive)
GI50 (UO-31): 25.7 µM (inactive)

— ChEMBL document CHEMBL1201862, “PubChem BioAssay data set” (2004)
